Common to all, as to experiment: Enzymatic activity of PI3K isoforms, TR-FRET assay (PIP3 formation)
What all share (type): biochemical
(In general: In TR-FRET formats the signal depends on donor and acceptor labels being close together.)

Experiment [1] has as its target PI3Kδ (Homo sapiens (Human), UniProt O00329). The conditions noted are these: bound given in nM. The method in brief: (§1)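 After 30 min at 25° C, reactions were quenched with 10 mM EDTA plus 10 nM labeled-PIP3 and 35 nM Europium-GRP-1, and TR-FRET was read (Ex 340, Em 615/665 nm). Enzymes were purified recombinant heterodimers; product PIP3 competes off the labeled tracer. Values given as IC50, nM.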

Experiment [2] has as its target PI3Kα (Homo sapiens (Human), UniProt P42336). The procedure, abridged: as §1
For experiment [3], the target named is PI3Kβ (Homo sapiens (Human), UniProt P42338). The procedure, abridged:
(§2)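 IC50 (nM) reflects inhibition of PIP3 formation by purified recombinant heterodimeric PI3K, measured as loss of TR-FRET signal. The read-out comes from competition between enzyme-made PIP3 and labelled PIP3 for binding to the GRP-1 pleckstrin homology domain.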

The target in experiment [4] is PI3Kγ (Homo sapiens (Human), UniProt P48736). The procedure, abridged:
as §2

Chain of PI3Kα (P42336 whole entry): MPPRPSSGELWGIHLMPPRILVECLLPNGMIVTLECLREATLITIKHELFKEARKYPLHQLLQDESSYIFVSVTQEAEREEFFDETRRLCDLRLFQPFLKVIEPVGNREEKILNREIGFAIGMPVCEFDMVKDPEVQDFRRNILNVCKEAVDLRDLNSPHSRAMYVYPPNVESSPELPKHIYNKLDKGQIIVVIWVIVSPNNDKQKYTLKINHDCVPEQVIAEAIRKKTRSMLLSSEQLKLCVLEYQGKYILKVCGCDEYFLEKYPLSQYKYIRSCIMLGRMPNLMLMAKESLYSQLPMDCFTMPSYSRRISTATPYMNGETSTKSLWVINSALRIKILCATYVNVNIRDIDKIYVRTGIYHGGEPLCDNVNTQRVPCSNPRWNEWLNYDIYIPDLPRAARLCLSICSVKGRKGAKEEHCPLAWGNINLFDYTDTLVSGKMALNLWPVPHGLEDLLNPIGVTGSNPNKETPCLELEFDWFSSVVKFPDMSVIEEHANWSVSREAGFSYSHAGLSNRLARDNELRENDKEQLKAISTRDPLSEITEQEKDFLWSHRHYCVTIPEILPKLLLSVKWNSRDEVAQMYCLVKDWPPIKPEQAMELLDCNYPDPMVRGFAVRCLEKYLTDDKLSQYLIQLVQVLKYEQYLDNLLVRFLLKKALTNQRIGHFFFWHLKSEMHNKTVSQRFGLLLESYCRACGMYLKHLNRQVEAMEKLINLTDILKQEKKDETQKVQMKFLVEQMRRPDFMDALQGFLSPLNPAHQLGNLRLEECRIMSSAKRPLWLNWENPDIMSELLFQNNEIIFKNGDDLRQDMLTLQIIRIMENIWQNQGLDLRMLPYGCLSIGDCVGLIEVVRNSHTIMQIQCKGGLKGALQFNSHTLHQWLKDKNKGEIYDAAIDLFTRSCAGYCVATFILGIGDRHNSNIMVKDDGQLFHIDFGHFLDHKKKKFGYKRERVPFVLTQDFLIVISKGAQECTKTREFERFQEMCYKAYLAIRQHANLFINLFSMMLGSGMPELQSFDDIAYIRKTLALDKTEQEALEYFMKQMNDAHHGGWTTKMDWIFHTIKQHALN
Chain of PI3Kα (P27986 whole entry partner): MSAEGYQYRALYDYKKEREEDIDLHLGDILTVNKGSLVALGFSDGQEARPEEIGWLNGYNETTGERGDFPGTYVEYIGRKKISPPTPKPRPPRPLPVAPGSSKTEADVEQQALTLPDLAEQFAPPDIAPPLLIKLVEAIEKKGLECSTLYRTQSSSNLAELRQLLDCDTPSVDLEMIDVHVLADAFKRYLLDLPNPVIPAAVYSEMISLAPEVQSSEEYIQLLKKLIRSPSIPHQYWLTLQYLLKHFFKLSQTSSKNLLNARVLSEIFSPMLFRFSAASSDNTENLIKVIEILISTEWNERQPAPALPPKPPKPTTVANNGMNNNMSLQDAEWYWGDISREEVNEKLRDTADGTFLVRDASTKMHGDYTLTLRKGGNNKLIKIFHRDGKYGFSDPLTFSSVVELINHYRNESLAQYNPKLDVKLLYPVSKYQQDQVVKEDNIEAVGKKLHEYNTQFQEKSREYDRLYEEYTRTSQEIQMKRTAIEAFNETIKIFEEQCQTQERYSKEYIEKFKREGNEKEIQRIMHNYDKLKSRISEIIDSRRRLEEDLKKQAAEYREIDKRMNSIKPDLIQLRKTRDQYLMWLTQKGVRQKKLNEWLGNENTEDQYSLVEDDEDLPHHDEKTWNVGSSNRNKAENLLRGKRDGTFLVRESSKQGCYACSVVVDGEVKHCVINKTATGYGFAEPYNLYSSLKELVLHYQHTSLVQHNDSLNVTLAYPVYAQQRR
Chain of PI3Kβ (P42338 whole entry, the tested form may be a part): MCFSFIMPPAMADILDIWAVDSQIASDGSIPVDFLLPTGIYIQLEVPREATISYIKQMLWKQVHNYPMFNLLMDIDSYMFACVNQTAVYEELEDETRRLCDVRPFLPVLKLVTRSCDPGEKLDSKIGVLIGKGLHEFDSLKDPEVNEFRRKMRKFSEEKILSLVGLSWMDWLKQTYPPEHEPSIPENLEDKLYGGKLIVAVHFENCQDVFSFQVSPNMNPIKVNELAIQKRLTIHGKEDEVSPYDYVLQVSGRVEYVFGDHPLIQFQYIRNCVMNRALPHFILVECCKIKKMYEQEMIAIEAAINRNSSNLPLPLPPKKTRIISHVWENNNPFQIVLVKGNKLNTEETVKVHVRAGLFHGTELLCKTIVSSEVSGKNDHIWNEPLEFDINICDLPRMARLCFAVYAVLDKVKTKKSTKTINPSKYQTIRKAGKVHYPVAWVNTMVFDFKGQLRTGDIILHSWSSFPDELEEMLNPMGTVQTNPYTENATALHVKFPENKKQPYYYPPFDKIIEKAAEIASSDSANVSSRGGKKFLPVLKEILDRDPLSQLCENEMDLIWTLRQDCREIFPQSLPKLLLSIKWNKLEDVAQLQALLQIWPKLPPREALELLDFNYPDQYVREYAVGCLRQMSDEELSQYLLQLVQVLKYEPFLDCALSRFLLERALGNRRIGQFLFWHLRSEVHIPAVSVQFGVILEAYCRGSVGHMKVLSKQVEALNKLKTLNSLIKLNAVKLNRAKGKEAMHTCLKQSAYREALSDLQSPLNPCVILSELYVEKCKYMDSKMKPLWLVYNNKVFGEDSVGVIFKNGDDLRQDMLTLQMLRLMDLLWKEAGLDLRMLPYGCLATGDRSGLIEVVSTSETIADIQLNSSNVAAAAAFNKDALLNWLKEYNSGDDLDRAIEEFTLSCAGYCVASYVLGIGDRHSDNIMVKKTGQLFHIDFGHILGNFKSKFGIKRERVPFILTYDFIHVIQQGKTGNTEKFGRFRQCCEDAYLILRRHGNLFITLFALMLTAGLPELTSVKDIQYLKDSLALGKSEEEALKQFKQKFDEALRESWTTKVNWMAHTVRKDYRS
Chain of PI3Kβ (P27986 whole entry partner, the tested form may be a part): as the sequence (P27986 whole entry partner) above
Chain of PI3Kγ (P48736 whole entry): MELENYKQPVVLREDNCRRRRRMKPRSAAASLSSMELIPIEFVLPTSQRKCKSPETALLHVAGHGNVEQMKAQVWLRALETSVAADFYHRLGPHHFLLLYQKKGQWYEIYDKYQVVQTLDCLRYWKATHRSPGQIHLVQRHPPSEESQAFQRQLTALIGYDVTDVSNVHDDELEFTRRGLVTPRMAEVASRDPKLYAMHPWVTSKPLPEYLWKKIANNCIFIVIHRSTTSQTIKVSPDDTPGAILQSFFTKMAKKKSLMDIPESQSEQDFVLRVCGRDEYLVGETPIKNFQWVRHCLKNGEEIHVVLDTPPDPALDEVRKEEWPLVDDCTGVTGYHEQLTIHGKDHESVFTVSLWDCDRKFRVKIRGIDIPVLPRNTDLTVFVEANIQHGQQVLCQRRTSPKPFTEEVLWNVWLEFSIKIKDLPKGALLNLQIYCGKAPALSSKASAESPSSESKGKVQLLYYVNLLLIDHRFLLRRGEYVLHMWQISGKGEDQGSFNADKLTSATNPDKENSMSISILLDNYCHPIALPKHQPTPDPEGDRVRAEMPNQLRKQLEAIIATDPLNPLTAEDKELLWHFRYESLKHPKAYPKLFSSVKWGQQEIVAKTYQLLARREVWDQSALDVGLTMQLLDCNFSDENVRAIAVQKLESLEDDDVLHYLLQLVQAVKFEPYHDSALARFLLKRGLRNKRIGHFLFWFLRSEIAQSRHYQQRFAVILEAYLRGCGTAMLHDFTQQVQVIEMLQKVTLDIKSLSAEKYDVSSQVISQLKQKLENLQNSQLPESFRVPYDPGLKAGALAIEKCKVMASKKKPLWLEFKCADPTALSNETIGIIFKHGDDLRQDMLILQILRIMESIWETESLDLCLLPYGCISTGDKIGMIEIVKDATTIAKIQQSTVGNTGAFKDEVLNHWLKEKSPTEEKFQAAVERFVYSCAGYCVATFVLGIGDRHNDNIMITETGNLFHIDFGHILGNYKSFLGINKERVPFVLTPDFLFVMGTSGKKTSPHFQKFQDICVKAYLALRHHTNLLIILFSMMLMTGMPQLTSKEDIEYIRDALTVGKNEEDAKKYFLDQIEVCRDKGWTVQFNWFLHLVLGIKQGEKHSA
Chain of PI3Kγ (Q8WYR1 whole entry partner): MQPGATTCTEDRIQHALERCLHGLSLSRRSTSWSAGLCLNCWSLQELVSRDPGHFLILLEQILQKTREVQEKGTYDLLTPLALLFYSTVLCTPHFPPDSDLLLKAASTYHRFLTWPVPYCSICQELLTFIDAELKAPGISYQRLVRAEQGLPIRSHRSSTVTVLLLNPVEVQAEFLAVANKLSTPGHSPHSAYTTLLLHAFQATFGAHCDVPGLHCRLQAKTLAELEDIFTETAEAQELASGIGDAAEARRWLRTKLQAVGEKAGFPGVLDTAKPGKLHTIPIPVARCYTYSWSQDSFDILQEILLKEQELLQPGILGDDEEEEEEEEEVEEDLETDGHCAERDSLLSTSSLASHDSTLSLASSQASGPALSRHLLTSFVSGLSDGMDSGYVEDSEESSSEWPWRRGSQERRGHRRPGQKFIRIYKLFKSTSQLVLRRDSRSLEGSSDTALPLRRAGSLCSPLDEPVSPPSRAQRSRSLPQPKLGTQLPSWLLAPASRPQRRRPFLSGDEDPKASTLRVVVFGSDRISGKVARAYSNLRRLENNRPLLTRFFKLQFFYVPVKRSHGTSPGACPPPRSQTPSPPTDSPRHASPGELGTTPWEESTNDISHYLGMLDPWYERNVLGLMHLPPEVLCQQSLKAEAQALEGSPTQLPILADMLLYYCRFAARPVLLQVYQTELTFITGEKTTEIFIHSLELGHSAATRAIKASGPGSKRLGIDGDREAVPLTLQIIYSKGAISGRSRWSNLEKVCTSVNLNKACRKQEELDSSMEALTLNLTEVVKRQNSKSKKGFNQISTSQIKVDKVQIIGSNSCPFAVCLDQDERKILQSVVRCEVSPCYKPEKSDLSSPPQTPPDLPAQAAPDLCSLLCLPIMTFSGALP

For orientation: IC50 means the point on the concentration scale where inhibition reaches its midpoint. A high value points to lower potency. With `C[C@H](Nc1ncnc(N)c1C#Cc1cnccn1)c1nc2cccc(C(F)F)c2c(=O)n1-c1cc(F)cc(F)c1` [Compound 66a, (S)-2-(1-((6-amino-5-(pyrazin-2-ylethynyl)pyrimidin-4-yl)amino)ethyl)-5-(difluoromethyl)-3-(3,5-difluorophenyl)quinazolin-4(3H)-one], the half-maximal inhibitory concentration (IC50) in experiment [1] was < 100 nM; in experiment [2] (bound given in uM) it was > 1 µM; in experiment [3] (bound given in uM) it was > 1 µM; in experiment [4] (bound given in uM) it was > 1 µM.

`C[C@H](Nc1ncnc(N)c1C#CC1CC1)c1nc2cccc(Cl)c2c(=O)n1-c1ccccc1` [Compound 24a, (S)-2-(1-(6-amino-5-(cyclopropylethynyl)pyrimidin-4-ylamino)ethyl)-5-chloro-3-phenylquinazolin-4(3H)-one]: the concentration for half-maximal inhibition (IC50) is < 100 nM in experiment [1], > 1 µM in experiment [2] (bound given in uM), > 1 µM in experiment [3] (bound given in uM) and > 1 µM in experiment [4] (bound given in uM).

As to `C[C@H](Nc1ncnc(N)c1C#Cc1cnccn1)c1nc2cccc(C#N)c2c(=O)n1-c1ccccc1` [Compound 55a, (S)-2-(1-((6-amino-5-(pyrazin-2-ylethynyl)pyrimidin-4-yl)amino)ethyl)-4-oxo-3-phenyl-3,4-dihydroquinazoline-5-carbonitrile], the concentration for half-maximal inhibition (IC50) in experiment [1] was < 100 nM; in experiment [2] (bound given in uM) it was > 1 µM; in experiment [3] (bound given in uM), > 1 µM; in experiment [4] (bound given in uM), > 1 µM.

With `C[C@H](Nc1ncnc(N)c1C#Cc1cnccn1)c1nc2cccc(Cl)c2c(=O)n1N1CCCCCC1` [Compound 126a, (S)-2-(1-((6-amino-5-(pyrazin-2-ylethynyl)pyrimidin-4-yl)amino)ethyl)-3-(azepan-1-yl)-5-chloroquinazolin-4(3H)-one], the IC50 in experiment [1] is < 100 nM; in experiment [2] (bound given in uM), > 1 µM; in experiment [3] (bound given in uM), > 1 µM; in experiment [4] (bound given in uM), > 1 µM.

In the case of `CC(=O)c1cccc(C#Cc2c(N)ncnc2N[C@@H](C)c2nc3cccc(Cl)c3c(=O)n2-c2ccccc2)c1` [Compound 161a, (S)-2-(1-((5-((3-acetylphenyl)ethynyl)-6-aminopyrimidin-4-yl)amino)ethyl)-5-chloro-3-phenylquinazolin-4(3H)-one], the concentration for half-maximal inhibition (IC50) in experiment [1] is < 100 nM; in experiment [2] (bound given in nM), < 0.1 µM; in experiment [3] (bound given in nM), < 0.1 µM; in experiment [4] (bound given in nM), < 0.1 µM.

`C[C@H](Nc1ncnc(N)c1C#Cc1ccc(F)cn1)c1nc2cccc(F)c2c(=O)n1-c1cc(F)cc(F)c1` [Compound 7a, (S)-2-(1-(6-amino-5-((5-fluoropyridin-2-yl)ethynyl)pyrimidin-4-ylamino)ethyl)-3-(3,5-difluorophenyl)-5-fluoroquinazolin-4(3H)-one]: the IC50 is < 100 nM in experiment [1], > 1 µM in experiment [2] (bound given in uM), > 1 µM in experiment [3] (bound given in uM) and > 1 µM in experiment [4] (bound given in uM).

As for `Cc1cccc2c(=O)n(-c3ccccc3)c([C@H](C)Nc3ncnc(N)c3C#Cc3ccc(F)cn3)nc12` [Compound 56a, (S)-2-(1-((6-amino-5-((5-fluoropyridin-2-yl)ethynyl)pyrimidin-4-yl)amino)ethyl)-8-methyl-3-phenylquinazolin-4(3H)-one], the 50% inhibitory concentration (IC50) was < 100 nM in experiment [1], > 1 µM in experiment [2] (bound given in uM), > 1 µM in experiment [3] (bound given in uM) and > 1 µM in experiment [4] (bound given in uM).

With `Cc1cccc2nc([C@H](C)Nc3ncnc(N)c3C#Cc3cnccn3)n(-c3cncc(F)c3)c(=O)c12` [Compound 120a, (S)-2-(1-((6-amino-5-(pyrazin-2-ylethynyl)pyrimidin-4-yl)amino)ethyl)-3-(5-fluoropyridin-3-yl)-5-methylquinazolin-4(3H)-one], the IC50 in experiment [1] is < 100 nM; in experiment [2] (bound given in uM) it was > 1 µM; in experiment [3] (bound given in uM), > 1 µM; in experiment [4] (bound given in uM), > 1 µM.

Take `C[C@H](Nc1ncnc(N)c1C#Cc1cnccn1)c1nc2cccc(Cl)c2c(=O)n1C1C[C@H]2CC[C@@H](C1)N2C` (stereo partly drawn) [Compound 124a, 2-((S)-1-((6-amino-5-(pyrazin-2-ylethynyl)pyrimidin-4-yl)amino)ethyl)-5-chloro-3-((1R,5S)-8-methyl-8-azabicyclo[3.2.1]octan-3-yl)quinazolin-4(3H)-one]: the half-inhibitory concentration (IC50) in experiment [1] is < 100 nM; in experiment [2] (bound given in uM) it was > 1 µM; in experiment [3] (bound given in uM), > 1 µM; in experiment [4] (bound given in uM) it was > 1 µM.

For `C[C@H](Nc1ncnc(N)c1C#Cc1ccc(F)cn1)c1nc2cccc(F)c2c(=O)n1-c1ccccc1` [Compound 8a, (S)-2-(1-(6-amino-5-((5-fluoropyridin-2-yl)ethynyl)pyrimidin-4-ylamino)ethyl)-5-fluoro-3-phenylquinazolin-4(3H)-one], the 50% inhibitory concentration (IC50) is < 100 nM in experiment [1], > 1 µM in experiment [2] (bound given in uM), > 1 µM in experiment [3] (bound given in uM) and > 1 µM in experiment [4] (bound given in uM).

For `C[C@H](Nc1ncnc(N)c1C#Cc1ncccn1)c1nc2cccc(Cl)c2c(=O)n1-c1cc(F)cc(F)c1` [Compound 103a, (S)-2-(1-((6-amino-5-(pyrimidin-2-ylethynyl)pyrimidin-4-yl)amino)ethyl)-5-chloro-3-(3,5-difluorophenyl)quinazolin-4(3H)-one], the IC50 in experiment [1] was < 100 nM; in experiment [2] (bound given in uM) it was > 1 µM; in experiment [3] (bound given in uM) it was > 1 µM; in experiment [4] (bound given in uM), > 1 µM.

For `C[C@H](Nc1ncnc(N)c1C#Cc1cnccn1)c1nc2cccc(F)c2c(=O)n1-c1cccc(F)c1` [Compound 101a, (S)-2-(1-((6-amino-5-(pyrazin-2-ylethynyl)pyrimidin-4-yl)amino)ethyl)-5-fluoro-3-(3-fluorophenyl)quinazolin-4(3H)-one], the IC50 in experiment [1] is < 100 nM; in experiment [2] (bound given in uM) it was > 1 µM; in experiment [3] (bound given in uM), > 1 µM; in experiment [4] (bound given in uM), > 1 µM.

For the compound `C[C@H](Nc1ncnc(N)c1C#Cc1ccc(F)cn1)c1nc2cccc(Cl)c2c(=O)n1-c1cccc(CN(C)S(C)(=O)=O)c1` [Compound 129a, (S)—N-(3-(2-(1-((6-amino-5-((5-fluoropyridin-2-yl)ethynyl)pyrimidin-4-yl)amino)ethyl)-5-chloro-4-oxoquinazolin-3(4H)-yl)benzyl)-N-methylmethanesulfonamide], the IC50 is < 100 nM in experiment [1], > 1 µM in experiment [2] (bound given in uM), > 1 µM in experiment [3] (bound given in uM) and > 1 µM in experiment [4] (bound given in uM).

As to `C[C@H](Nc1ncnc(N)c1C#C[C@@H](C)O)c1nc2cccc(Cl)c2c(=O)n1-c1cc(F)cc(F)c1` [Compound 20a, 2-((S)-1-(6-amino-5-((R)-3-hydroxybut-1-ynyl)pyrimidin-4-ylamino)ethyl)-5-chloro-3-(3,5-difluorophenyl)quinazolin-4(3H)-one], the IC50 is < 100 nM in experiment [1], > 1 µM in experiment [2] (bound given in uM), > 1 µM in experiment [3] (bound given in uM) and > 1 µM in experiment [4] (bound given in uM).

For the compound `C[C@H](Nc1ncnc(N)c1C#Cc1cccc(CN)n1)c1nc2cccc(Cl)c2c(=O)n1-c1ccccc1` [Compound 159a, (S)-2-(1-((6-amino-5-((6-(aminomethyl)pyridin-2-yl)ethynyl)pyrimidin-4-yl)amino)ethyl)-5-chloro-3-phenylquinazolin-4(3H)-one], the concentration for half-maximal inhibition (IC50) in experiment [1] is < 100 nM; in experiment [2] (bound given in uM), > 1 µM; in experiment [3] (bound given in uM) it was > 1 µM; in experiment [4] (bound given in uM), > 1 µM.

Take `C[C@H](O)C#Cc1c(N)ncnc1N[C@@H](C)c1nc2cccc(Cl)c2c(=O)n1-c1cc(F)cc(F)c1` [Compound 20b, 2-((S)-1-(6-amino-5-((S)-3-hydroxybut-1-ynyl)pyrimidin-4-ylamino)ethyl)-5-chloro-3-(3,5-difluorophenyl)quinazolin-4(3H)-one]: the IC50 in experiment [1] was < 100 nM; in experiment [2] (bound given in uM) it was > 1 µM; in experiment [3] (bound given in uM), > 1 µM; in experiment [4] (bound given in uM), > 1 µM.

`COc1cc(F)cc(C#Cc2c(N)ncnc2NC(C)c2nc3c(F)ccc(F)c3c(=O)n2-c2ccccc2)c1` (centres unmarked) [Compound 63a, 2-(1-((6-amino-5-((3-fluoro-5-methoxyphenyl)ethynyl)pyrimidin-4-yl)amino)ethyl)-5,8-difluoro-3-phenylquinazolin-4(3H)-one]: the concentration for half-maximal inhibition (IC50) in experiment [1] was < 100 nM; in experiment [2] (bound given in uM), > 1 µM; in experiment [3] (bound given in uM) it was > 1 µM; in experiment [4] (bound given in uM), > 1 µM.

In the case of `C[C@H](Nc1ncnc(N)c1C#Cc1ccc(F)cn1)c1nc2cccc(F)c2c(=O)n1-c1cccc(F)c1` [Compound 99a, (S)-2-(1-((6-amino-5-((5-fluoropyridin-2-yl)ethynyl)pyrimidin-4-yl)amino)ethyl)-5-fluoro-3-(3-fluorophenyl)quinazolin-4(3H)-one], the 50% inhibitory concentration (IC50) in experiment [1] was < 100 nM; in experiment [2] (bound given in uM), > 1 µM; in experiment [3] (bound given in uM), > 1 µM; in experiment [4] (bound given in uM) it was > 1 µM.

`C[C@H](Nc1ncnc(N)c1C#CC(C)(C)O)c1nc2cccc(Cl)c2c(=O)n1-c1ccccc1` [Compound 29a, (S)-2-(1-(6-amino-5-(3-hydroxy-3-methylbut-1-ynyl)pyrimidin-4-ylamino)ethyl)-5-chloro-3-phenylquinazolin-4(3H)-one]: the IC50 in experiment [1] was < 100 nM; in experiment [2] (bound given in uM), > 1 µM; in experiment [3] (bound given in uM) it was > 1 µM; in experiment [4] (bound given in uM), > 1 µM.

On to `C[C@H](Nc1ncnc(N)c1C#Cc1cnc(N)nc1)c1nc2cccc(Cl)c2c(=O)n1-c1ccccc1` [Compound 33a, (S)-2-(1-(6-amino-5-((2-aminopyrimidin-5-yl)ethynyl)pyrimidin-4-ylamino)ethyl)-5-chloro-3-phenylquinazolin-4(3H)-one], for which the concentration for half-maximal inhibition (IC50) in experiment [1] is < 100 nM; in experiment [2] (bound given in nM), < 0.1 µM; in experiment [3] (bound given in nM) it was < 0.1 µM; in experiment [4] (bound given in nM) it was < 0.1 µM.

The values above are taken from US9266878B2, “Phosphatidylinositol 3-kinase inhibitors” (Gilead Calistoga LLC, priority 2012, dated 2016).
